In this test the test system is C57/BL6 mice. As to the kind of experiment: Metabolic cage monitoring of C57/BL6 mice after intraperitoneal injection. It is filed as in vivo, mouse. Conditions: 5 mg/Kg IP daily. Here is the method: To examine potential effects of CM002 on central clock located in suprachiasmatic nuclei that controls food intake, activity and sleep rhythms, we administered CM002 (5 mg/Kg) together with DMSO as vehicle control using daily IP injections in normal C57/BL6 mice. Mice received daily injections for 3 doses and their food and water intake, activity level and energy expenditure were monitored using metabolic cages for 3 days.

Take `CCCCCC/C=N/C(=N)NC(=N)Nc1ccc(Cl)cc1` [CM002]: the “daily ambulatory activity levels” value is given as “tendency toward reduction although not significantly altered” and the water consumption result is “remains comparable between groups”. In addition, the “accumulative food consumption, relative to normal food intake level” value (3 doses, after 3 days) was approximately 25%. In addition, the energy expenditure entry (calculated from oxygen consumption) was “persistently elevated”.

Source of the values: US20250100962A1 (CITY OF HOPE, priority 2023, published 2025).
